# In patent publication US7888355B2, “Compositions and methods for inhibiting growth and metastasis of melanoma” (Burnham Institute for Medical Research, priority 2007, dated 2011):
# How the values were obtained:
# Format in all cases: cell-based, mouse
# SW1 cells = assay: cells; conditions: for effect of JNK inhibitor SP600125 on compound-induced cell death: 30-minute pretreatment with SP600125 (10 μM), then compound 20 h
# Procedure: Cell lines. Mouse melanoma (SW1) and human melanoma (LU1205) cells were maintained in DMEM supplemented with 10% FBS, L-glutamine and antibiotics. The human melanoma cell lines MEWO and WM115 were maintained in RPMI supplemented with 10% FBS and antibiotics. Primary mouse melanocytes were cultured in F-12 media supplemented with 10% FBS, antibiotics, IBMX (isobuthyl-methylxantine), bovine pituitary extract, and TPA.
# Mitochondrial activity and apoptosis. Cells were exposed to the chemicals for 12-48 hours as indicated in Results. To measure changes in mitochondrial activity reflective of general cell viability, the ATPLITE ATP detection assay was used according to the manufacturer's recommendations (Perkin Elmer). Apoptosis analysis was performed by flow cytometry of PI-stained cells. The percentage of cells to the left of the diploid G0/1 peak, characteristic of hypodiploid cells that have partially lost DNA, was calculated as percentage of apoptotic cells (Bhoumik et al., PNAS 101:4222-7, 2004). Analysis of changes in Caspase 8 expression pattern was performed using immunoblot analysis. […]
# Characterization of CSL and AIGA effects on mouse melanoma cells. The structures of AIGA and CSL are depicted in FIGS. 1a and 1b. AIGA was tested for cytotoxicity at concentrations ranging between 0.1 and 2 μM, whereas CSL was used at a concentration of 0.01 to 0.3 μM. SW1 cells or normal melanocytes were seeded on 96 well plates and 24 h late, cells were treated with the indicated concentrations of ATF2 50-100 peptide, AIGA, or CSL for 20 h. ATF2 50-100 peptide (cloned in mammalian expression vector in frame with penetratin was transfected with the aid of lipofectamine) was used as a positive control. ATP levels were used as an indicator of cell viability and were measured using the ATPLITE ATP detection assay kit. The number of surviving cells upon AIGA treatment was normalized to the number of surviving cells under the control treatment, and the normalized number was designated as the “% Viability.” Results shown in FIGS. 1c-1f represent 3 experiments. Treatment of SW1 melanoma cells with 1 μM of AIGA reduced the viability of melanoma cells to 10%, (FIG. 1c). Treatment of the SW1 cells with 0.05 μM of CSL reduced the viability of melanoma cells to 50%, and 0.1 μM reduced it to 10% (FIG. 1d). […] Normal melanocytes and fibroblasts were used as a control.
# Thus, the two compounds were evaluated to determine if they require JNK activity for their effects on melanoma cells. To this end, the ability of AIGA or CSL to affect the viability of melanoma cells in the presence of a JNK inhibitor was tested. SW1 cells, with or without a 30-minute pretreatment with the JNK inhibitor SP600125 (10 μM), were contacted with AIGA or CSL at the indicated concentrations for 20 h. ATP levels were used to measure the cell viability using the ATPLITE kit. The number of surviving cells upon AIGA or CSL treatment was normalized to the number of surviving cells under the control treatment, and the normalized number was designated as the “% Viability.” Shown are representative results from 2 experiments. […] Of note, inhibition of JNK activity was more pronounced at lower concentrations of CSL compared with AIGA. […] To assess whether these compounds affect JNK activity, changes in JNK phosphorylation on residues 183/185, which are required for its kinase activity, were monitored. Western blot analysis for JNK phosphorylation on residues 183/185 was performed on protein extracts that were prepared from cells treated with AIGA at concentrations of 0.5 μM, 1.0 μM, and 2.0 μM and a control with no AIGA treatment. Duplicate samples were treated with JNK inhibitor (SP600125). Total level of JNK was analyzed in parallel. […]
# [1] = tested on: AP1/c-Jun transcriptional activity; assay: TRE-luciferase reporter assay in SW1 cells; conditions: 8 h; for AP1/c-Jun transcriptional activity (TRE-Luc): compounds compared with ATF2 peptide; for dose from which c-Jun transcriptional activity is induced: TRE-Luc
# Procedure: Constructs and inhibitors. An ATF2 peptide (aa 51-100) was cloned into HA-tagged pcDNA3 vector as previously described (Bhoumik et al., Cancer Res 64:8222-30, 2004). 5×Jun2tk-Luc (marker for ATF2 transcriptional activities), 5×TRE-tk-Luc (marker for AP1/c-Jun transcriptional activities) and 2×NF-B-Luc were previously described (Bhoumik et al., J Clin Invest 110:643-50, 2002). Pharmacological inhibitor of JNK (SP600125) was purchased (EMD biosciences) and added (5 μM) to cultured cells as indicated in Results.
# Transcriptional analysis. Transient transfection of different reporter constructs into melanoma cells was performed using LIPOFECTAMINE PLUS transfection reagent (Invitrogen). Luciferase activity was determined as previously described (Bhoumik et al., PNAS 101:4222-7, 2004).
# The effects of the two compounds on c-Jun transcriptional activity in mouse melanoma SW1 cells was assessed. SW1 cells were transfected with the TRE-luciferase plasmid and 24 h later, cells were treated with the indicated concentrations of AIGA or CSL for 8 h before proteins were prepared and level of luciferase activity was measured. ATF250-100 peptide was used as a positive control. Data shown represent results from 3 experiments. […] AIGA induced c-Jun transcriptional activity at doses starting from 0.1 μM (FIG. 2a).
# SW1 melanoma cells = assay: Apoptosis by FACS of PI-stained SW1 cells; conditions: 48 h
# Procedure: Mitochondrial activity and apoptosis. Cells were exposed to the chemicals for 12-48 hours as indicated in Results. To measure changes in mitochondrial activity reflective of general cell viability, the ATPLITE ATP detection assay was used according to the manufacturer's recommendations (Perkin Elmer). Apoptosis analysis was performed by flow cytometry of PI-stained cells. The percentage of cells to the left of the diploid G0/1 peak, characteristic of hypodiploid cells that have partially lost DNA, was calculated as percentage of apoptotic cells (Bhoumik et al., PNAS 101:4222-7, 2004). Analysis of changes in Caspase 8 expression pattern was performed using immunoblot analysis.
# The finding that CSL and AIGA reduced cell viability in melanoma was made using the ATPLITE assay, which monitors the degree of mitochondrial ATP release, a marker for mitochondrial activity. To directly assess possible changes in the apoptosis of melanoma cells following their exposure to CSL or AIGA, FACS analysis of the melanoma cells was performed 48 h after treatment. […] Treatment with 1 μM AIGA caused 15% apoptosis in these melanoma cultures (FIG. 4a). Treatment with CSL caused 13% apoptosis at a dose of 0.5 μM and 35% apoptosis at a dose of 1 μM (FIG. 4b). Consistent with these finding is the activation of caspases 8, a classic marker for apoptosis, which was observed upon addition of these compounds, by Western blot analysis. SW1 cells were treated with 0.5 μM AIGA, 0.5 μM CSL, 1.0 μM CSL for 24 hours. Staurosporin was used as a positive control. Immunoblot analysis using caspase 8 antibody monitored full length and cleaved forms (active) of caspase 8. β-actin was used as a loading control.
Structure (SMILES),effect of JNK inhibitor SP600125 on compound-induced cell death (SW1 cells),"viability at 1 µM (SW1 cells; Mus musculus, 20 h, read-out: % Viability of SW1 melanoma cells) [%]",AP1/c-Jun transcriptional activity (TRE-Luc) [1],dose from which c-Jun transcriptional activity is induced [1] [µM],% apoptosis of SW1 melanoma cells (SW1 melanoma cells; 1 μM) [%],"viability at 0.05 µM (SW1 cells; Mus musculus, 0.05 μM, 20 h, read-out: % Viability of SW1 melanoma cells) [%]","viability at 0.1 µM (SW1 cells; Mus musculus, 0.1 μM, 20 h, read-out: % Viability of SW1 melanoma cells) [%]","EC50 (SW1 cells; Mus musculus, numeric EC50 cells of the column, read-out: Activity or EC50 (μM) in SW1 cells) [µM]",% apoptosis of SW1 melanoma cells (SW1 melanoma cells; 0.5 μM) [%]
"CC(=O)Oc1c2c(c(CC=C(C)C)c3c1C(=O)C1=C[C@@H]4CC5C(C)(C)OC(C/C=C(\C)C(=O)O)(C4=O)[C@@]15O3)OC(C)(CCC=C(C)C)C=C2 (stereo partly shown) [AIGA, Acetyl isogambogic acid]",attenuated the ability of AIGA or CSL to elicit the cell death,10,stronger activation of c-Jun transcription,≥ 0.1,15,,,,
CC1=C(O)C(=O)C=C2C1=CC=C1[C@@]2(C)CC[C@@]2(C)[C@@H]3C[C@](C)(C(=O)O)CC[C@]3(C)CC[C@]12C [Celastrol],attenuated the ability of AIGA or CSL to elicit the cell death,,stronger activation of c-Jun transcription,≥ 0.01,35,50,10,~0.1,13
